Consider 2 molecules from ChEMBL document CHEMBL4819128, “Discovery of indoline derivatives as anticancer agents via inhibition of tubulin polymerization” (Bioorg Med Chem Lett, 2021).

Calls of active or inactive are those of the source. The rule behind the calls is not given here.

What is called IC50 is the point on the concentration scale where inhibition reaches its midpoint. A higher IC50 goes with lower potency.

Assay [1] has as its target T1, Tubulin (Homo sapiens) (UniProt P68371+Q9H4B7+P0DPH7+P68366+Q13509+Q71U36+P04350+Q3ZCM7+P07437+P68363+Q9BQE3+Q6PEY2+Q13885+Q9BVA1+Q9BUF5). The experiment in a line: Inhibition of tubulin polymerization in human KYSE-30 cells at 1.25 uM by immunofluorescence assay. The class given is cell-based.
In assay [2] the target is T1, Tubulin (Homo sapiens). The experiment in a line: Inhibition of tubulin polymerization in human KYSE-30 cells by immunofluorescence assay. It is filed as cell-based.
Assay [3] deals with Tubulin beta (Homo sapiens) (UniProt P68371+Q9H4B7+Q13509+P04350+Q3ZCM7+P07437+Q13885+Q9BVA1+Q9BUF5+A6NNZ2). The experiment in a line: Binding affinity to beta-tubulin colchicine binding site in human KYSE-30 cells assessed as inhibition of tubulin-EBI adduct formation by EBI addition by Western blotting analysis. The class given is cell-based. In general terms: In western blotting, separated proteins are transferred to a membrane and probed.

Assay [4] addresses T1, Tubulin (Homo sapiens). The experiment in a line: Inhibition of tubulin polymerization in human KYSE-30 cells assessed as reduction in cell viability. It is filed as cell-based.
Assay [5] addresses T1, Tubulin (Homo sapiens). The experiment in a line: Inhibition of tubulin polymerization in human KYSE-450 cells assessed as reduction in cell viability upto 48 hrs. The class given is cell-based. As to conditions: time hrs <=48, TDE = time-dependent effect.
Assay [6] addresses T1, Tubulin (Homo sapiens). The experiment in a line: […] of tubulin polymerization in human KYSE-450 cells assessed as inhibition of cell growth after 48 hrs relative to control. The class given is cell-based.
Assay [7] deals with KYSE-450. The experiment in a line: Induction of cell morphological changes in human KYSE-450 cells measured after 48 hrs. The class given is functional, cell-based.
Assay [8] deals with KYSE-450. The experiment in a line: Inhibition of colony formation in human KYSE-450 cells at 0.188 to 0.313 uM after 7 days by crystal violet staining based assay. As to conditions: dose 0.188-0.313 µM, time 7.0 day. The class given is functional, cell-based.
The test system of the next assay is MGC-803. The experiment in a line: Antiproliferative activity against human MGC-803 cells incubated for 48 hrs by CCK8 assay. The conditions noted are these: MGC-803, 48 h. It is filed as functional, cell-based. Background: Tetrazolium assays rely on reduction of a dye to a coloured formazan, in cell work by metabolically active cells.

As to `COc1cc(C(=O)N2CCc3cc(Br)ccc32)cc(OC)c1OC`, the inhibition result at Tubulin (Homo sapiens) [1] and in the assay on KYSE-450 [8] was “Active” throughout. The inhibition result at Tubulin (Homo sapiens) [2] is “Dose-Dependent Effect”; at Tubulin (Homo sapiens) [4] it was “Dose-Dependent Effect”; on Tubulin (Homo sapiens) [5], “Tde”. Besides, the result (in assay [3]; with KYSE-450 [7]) was Active. Moreover, on Tubulin (Homo sapiens) [6], the Activity result is “Dose-Dependent Effect”.

For the molecule `O=C(Cc1ccccc1)N1CCc2cc(Br)ccc21`, the IC50 with MGC-803 was 32.8 µM.
